In the supplement of paper PMC11451515:

Test system: SEM cells
Experiment: cell viability relative to DMSO control; higher = less cytotoxic
Settings: 48 h
How it was run: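 Viability is expressed as a percentage of DMSO wells within each plate, and cell-free wells serve as background. Seeding densities in the 1536-well plates (5 μl) were 500 cells/well for NOMO1 or SEM leukemia cells and 1000 cells/well for P12-Ichikawa. Each line was adapted for at least four passages in each medium. Library compounds in DMSO were pin-dosed at 47 μM to 0.79 nM (11 points, threefold), and CellTiter-Glo One luminescence was read after 48 h at 37°C.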

[1] = HPLM + 10% dialyzed FBS, 0.000781 µM
[2] = HPLM + 10% dialyzed FBS, 0.00234 µM
[3] = HPLM + 10% dialyzed FBS, 0.00702 µM
[4] = HPLM + 10% dialyzed FBS, 0.0211 µM
[5] = HPLM + 10% dialyzed FBS, 0.0632 µM
[6] = HPLM + 10% dialyzed FBS, 0.19 µM
[7] = HPLM + 10% dialyzed FBS, 0.569 µM
[8] = HPLM + 10% dialyzed FBS, 1.71 µM
[9] = HPLM + 10% dialyzed FBS, 5.12 µM
[10] = HPLM + 10% dialyzed FBS, 15.4 µM
[11] = HPLM + 10% dialyzed FBS, 46.1 µM
[12] = RPMI 5 mM glucose + 10% FBS, 0.000781 µM
[13] = RPMI 5 mM glucose + 10% FBS, 0.00234 µM
[14] = RPMI 5 mM glucose + 10% FBS, 0.00702 µM
[15] = RPMI 5 mM glucose + 10% FBS, 0.0211 µM
[16] = RPMI 5 mM glucose + 10% FBS, 0.0632 µM
[17] = RPMI 5 mM glucose + 10% FBS, 0.19 µM
[18] = RPMI 5 mM glucose + 10% FBS, 0.569 µM
[19] = RPMI 5 mM glucose + 10% FBS, 1.71 µM
[20] = RPMI 5 mM glucose + 10% FBS, 5.12 µM
[21] = RPMI 5 mM glucose + 10% FBS, 15.4 µM
[22] = RPMI 5 mM glucose + 10% FBS, 46.1 µM
[23] = RPMI 5 mM glucose + 10% dialyzed FBS, 0.000781 µM
[24] = RPMI 5 mM glucose + 10% dialyzed FBS, 0.00234 µM
[25] = RPMI 5 mM glucose + 10% dialyzed FBS, 0.00702 µM
[26] = RPMI 5 mM glucose + 10% dialyzed FBS, 0.0211 µM
[27] = RPMI 5 mM glucose + 10% dialyzed FBS, 0.0632 µM
[28] = RPMI 5 mM glucose + 10% dialyzed FBS, 0.19 µM
[29] = RPMI 5 mM glucose + 10% dialyzed FBS, 0.569 µM
[30] = RPMI 5 mM glucose + 10% dialyzed FBS, 1.71 µM
[31] = RPMI 5 mM glucose + 10% dialyzed FBS, 5.12 µM
[32] = RPMI 5 mM glucose + 10% dialyzed FBS, 15.4 µM
[33] = RPMI 5 mM glucose + 10% dialyzed FBS, 46.1 µM

| SMILES | cell viability [1] [%] | cell viability [2] [%] | cell viability [3] [%] | cell viability [4] [%] | cell viability [5] [%] | cell viability [6] [%] | cell viability [7] [%] | cell viability [8] [%] | cell viability [9] [%] | cell viability [10] [%] | cell viability [11] [%] | cell viability [12] [%] | cell viability [13] [%] | cell viability [14] [%] | cell viability [15] [%] | cell viability [16] [%] | cell viability [17] [%] | cell viability [18] [%] | cell viability [19] [%] | cell viability [20] [%] | cell viability [21] [%] | cell viability [22] [%] | cell viability [23] [%] | cell viability [24] [%] | cell viability [25] [%] | cell viability [26] [%] | cell viability [27] [%] | cell viability [28] [%] | cell viability [29] [%] | cell viability [30] [%] | cell viability [31] [%] | cell viability [32] [%] | cell viability [33] [%] |
| --- | --- | --- | --- | --- | --- | --- | --- | --- | --- | --- | --- | --- | --- | --- | --- | --- | --- | --- | --- | --- | --- | --- | --- | --- | --- | --- | --- | --- | --- | --- | --- | --- | --- |
| Cc1c(NC(=O)OC[C@@H]2COCCN2)cn2ncnc(Nc3ccc4c(cnn4Cc4cccc(F)c4)c3)c12 | 74.5 | 72 | 85.6 | 85.8 | 91.5 | 106 | 94.5 | 96.8 | 103 | 21.7 | 25 | 95.5 | 95.2 | 103 | 103 | 116 | 102 | 109 | 104 | 98.6 | 15.4 | 10.8 | 71.7 | 62.1 | 78.1 | 90.3 | 74.8 | 84 | 88.5 | 99.6 | 85.6 | 16.8 | 9.72 |
| CC(C)C1=C(O)C=C(O)C(=C1)C/2=N/NC(=O)N2C3=CC4=C(C=C3)[N](C)C=C4 | – | – | – | – | – | – | – | – | – | – | – | 123 | 112 | 116 | 101 | 72.5 | 22.7 | 25.2 | 20 | 23.6 | 20.7 | 15.4 | 113 | 112 | 111 | 114 | 75.2 | 34.2 | 29.6 | 23.8 | 25 | 25.3 | 22 |
| O=c1[nH]c2ccccc2n1C1CCN(Cc2ccc(-c3nc4cc5nc[nH]c5cc4nc3-c3ccccc3)cc2)CC1 | 97.3 | 103 | 107 | 109 | 105 | 103 | 106 | 64.6 | 98.3 | 88.6 | 86.5 | 69.5 | 68.9 | 79.1 | 70.3 | 75.1 | 77.7 | 73.2 | 37.9 | 60.3 | 60.2 | 46.4 | 89.6 | 101 | 109 | 106 | 103 | 115 | 94.6 | 50.5 | 98.9 | 88.9 | 70.9 |
| Cn1c(CNc2ccc(C(=N)N)cc2)nc2cc(C(=O)N(CCC(=O)O)c3ccccn3)ccc21 | 87.6 | 96.3 | 95.2 | 106 | 101 | 103 | 102 | 117 | 104 | 121 | 116 | 73.1 | 99.2 | 98.6 | 97.6 | 102 | 96.6 | 99.6 | 93.2 | 95.6 | 110 | 103 | 65.6 | 98 | 95.8 | 114 | 110 | 104 | 97.7 | 122 | 120 | 118 | 119 |
| CNC[C@H](O)c1ccc(O)c(O)c1 | 90.5 | 85.8 | 71.9 | 73.9 | 77.3 | 17.6 | 63 | 68.7 | 61.3 | 70.5 | 53.1 | 104 | 97.3 | 85.6 | 73.1 | 102 | 30.8 | 87.9 | 83.7 | 79.8 | 90.7 | 82.4 | 104 | 111 | 85.8 | 83.3 | 93.3 | 28.2 | 86.5 | 95.3 | 89.5 | 82.1 | 68.9 |
| CC(N)C12CC3CC(CC(C3)C1)C2 (stereo not drawn) | 89.3 | 104 | 96.8 | 110 | 98.4 | 107 | 118 | 108 | 85.3 | 96.1 | 108 | 102 | 100 | 120 | 122 | 113 | 117 | 118 | 123 | 94.5 | 125 | 131 | 106 | 91.5 | 126 | 98.2 | 115 | 115 | 117 | 118 | 88.1 | 107 | 110 |
| CN1C[C@H]2c3ccccc3Oc3ccc(Cl)cc3[C@@H]2C1 | 75.4 | 76 | 68 | 76.3 | 80.2 | 84 | 94.5 | 90 | 96.3 | 85 | 6.31 | 89.6 | 80.8 | 90.6 | 86.7 | 71.4 | 91.7 | 92.4 | 90.6 | 95.8 | 79.3 | 5.32 | 73.5 | 83.7 | 76.6 | 83.3 | 73.5 | 105 | 107 | 103 | 85.3 | 79.1 | 6.04 |
| COc1cc2c(cc1OC)CC(=O)N(CCCN(C)C[C@H]1Cc3cc(OC)c(OC)cc31)CC2.Cl | 102 | 96.8 | 116 | 115 | 112 | 125 | 114 | 111 | 112 | 114 | 105 | 99.2 | 105 | 96.3 | 114 | 113 | 107 | 107 | 95.7 | 111 | 92.9 | 93.4 | 93.6 | 112 | 108 | 117 | 104 | 88.3 | 105 | 104 | 103 | 113 | 92 |
